Assay in all cases: relative viability (nuclei count vs DMSO), 5 days (fraction); higher = more cells survive
Compound in the test “Apatinib + Pictilisib”: N#CC1(c2ccc(NC(=O)c3cccnc3NCc3ccncc3)cc2)CCCC1 [Apatinib] + CS(=O)(=O)N1CCN(Cc2cc3nc(-c4cccc5[nH]ncc45)nc(N4CCOCC4)c3s2)CC1 [Pictilisib] (partner 1 µM)
The gist of the method:
(§1)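 The day after seeding in 1536-well plates, lung cancer cell lines were treated by pin tool with a single drug, or with a fixed anchor-drug dose together with five library-drug doses (not always all listed) in √10 steps. After 5 days, a combined fix-and-stain solution (final 0.05% Triton X-100, 1% formaldehyde, 1 ug/ml Hoechst) was added. Nuclei counted on 4× images gave relative viability as treated counts over vehicle counts, reported as the median of duplicate plates.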

Compound in the test “Metformin + Phenformin”: CN(C)C(=N)NC(=N)N [Metformin] + N=C(N)NC(=N)NCCc1ccccc1 [Phenformin] (partner 250 µM)
The gist of the method:
as §1

Compound in the test “Apatinib + Trametinib”: N#CC1(c2ccc(NC(=O)c3cccnc3NCc3ccncc3)cc2)CCCC1 [Apatinib] + CC(=O)Nc1cccc(-n2c(=O)n(C3CC3)c(=O)c3c(Nc4ccc(I)cc4F)n(C)c(=O)c(C)c32)c1 [Trametinib] (partner 0.02 µM)
The gist of the method:
as §1

Compound in the test “Apatinib + Vorinostat”: N#CC1(c2ccc(NC(=O)c3cccnc3NCc3ccncc3)cc2)CCCC1 [Apatinib] + O=C(CCCCCCC(=O)Nc1ccccc1)NO [Vorinostat] (partner 1 µM)
The gist of the method:
as §1

Consider 4 cell lines from the supplement of paper PMC10307832.

Consider LK-2, for which the relative viability with Apatinib + Pictilisib (first compound 0.08 µM) stood at 0.532; with Apatinib + Pictilisib (first compound 0.253 µM), 0.511; in the test with Apatinib + Pictilisib (first compound 0.8 µM), 0.484; with Apatinib + Pictilisib (first compound 2.53 µM), 0.326; with Apatinib + Pictilisib (first compound 8 µM) it was 0.428; in the test with Metformin + Phenformin (first compound 10 µM), 0.758. Also, the relative viability is 0.636 with Metformin + Phenformin (first compound 31.62 µM); 0.374 with Metformin + Phenformin (first compound 100 µM); 0.381 with Metformin + Phenformin (first compound 316.23 µM); 0.667 in the test with Metformin + Phenformin (first compound 1000 µM); 0.605 with Apatinib + Trametinib (first compound 0.08 µM); 0.671 with Apatinib + Trametinib (first compound 0.253 µM). Also, the relative viability with Apatinib + Trametinib (first compound 0.8 µM) stood at 0.75; with Apatinib + Trametinib (first compound 2.53 µM), 0.793; with Apatinib + Trametinib (first compound 8 µM), 0.395; in the test with Apatinib + Vorinostat (first compound 0.08 µM), 0.267; with Apatinib + Vorinostat (first compound 0.253 µM) it was 0.269; in the test with Apatinib + Vorinostat (first compound 0.8 µM) it was 0.248. Further, the relative viability with Apatinib + Vorinostat (first compound 2.53 µM) was determined as 0.145; in the test with Apatinib + Vorinostat (first compound 8 µM), 0.228.

Consider LOU-NH91, for which the relative viability with Apatinib + Pictilisib (first compound 0.08 µM) amounted to 0.516; in the test with Apatinib + Pictilisib (first compound 0.253 µM), 0.56; with Apatinib + Pictilisib (first compound 0.8 µM), 0.499; with Apatinib + Pictilisib (first compound 2.53 µM), 0.466; in the test with Apatinib + Pictilisib (first compound 8 µM), 0.522; with Metformin + Phenformin (first compound 10 µM) it was 0.731. The relative viability came to 0.593 with Metformin + Phenformin (first compound 31.62 µM); 0.545 in the test with Metformin + Phenformin (first compound 100 µM); 0.755 with Metformin + Phenformin (first compound 316.23 µM); 0.734 with Metformin + Phenformin (first compound 1000 µM); 0.826 with Apatinib + Trametinib (first compound 0.08 µM); 0.745 in the test with Apatinib + Trametinib (first compound 0.253 µM). Also, the relative viability was 0.716 with Apatinib + Trametinib (first compound 0.8 µM); 0.717 with Apatinib + Trametinib (first compound 2.53 µM); 0.729 in the test with Apatinib + Trametinib (first compound 8 µM); 0.974 with Apatinib + Vorinostat (first compound 0.08 µM); 0.97 with Apatinib + Vorinostat (first compound 0.253 µM); 0.82 with Apatinib + Vorinostat (first compound 0.8 µM). Further, the relative viability worked out at 0.816 with Apatinib + Vorinostat (first compound 2.53 µM) and 0.82 with Apatinib + Vorinostat (first compound 8 µM).

For LU99A, the relative viability is 0.333 with Apatinib + Pictilisib (first compound 0.08 µM); 0.327 in the test with Apatinib + Pictilisib (first compound 0.253 µM); 0.332 with Apatinib + Pictilisib (first compound 0.8 µM); 0.302 in the test with Apatinib + Pictilisib (first compound 2.53 µM); 0.295 in the test with Apatinib + Pictilisib (first compound 8 µM); 0.937 with Metformin + Phenformin (first compound 10 µM). Also, the relative viability worked out at 0.816 in the test with Metformin + Phenformin (first compound 31.62 µM); 0.761 with Metformin + Phenformin (first compound 100 µM); 0.775 with Metformin + Phenformin (first compound 316.23 µM); 0.919 with Metformin + Phenformin (first compound 1000 µM); 0.58 with Apatinib + Trametinib (first compound 0.08 µM); 0.552 with Apatinib + Trametinib (first compound 0.253 µM). Moreover, the relative viability with Apatinib + Trametinib (first compound 0.8 µM) was 0.543; with Apatinib + Trametinib (first compound 2.53 µM), 0.486; with Apatinib + Trametinib (first compound 8 µM), 0.29; with Apatinib + Vorinostat (first compound 0.08 µM), 0.514; in the test with Apatinib + Vorinostat (first compound 0.253 µM), 0.589; with Apatinib + Vorinostat (first compound 0.8 µM), 0.467. The values for the relative viability with Apatinib + Vorinostat (first compound 2.53 µM) and in the test with Apatinib + Vorinostat (first compound 8 µM) were 0.43 and 0.354, respectively.

Regarding LXF-289, the relative viability with Apatinib + Pictilisib (first compound 0.08 µM) stood at 0.838; with Apatinib + Pictilisib (first compound 0.253 µM), 0.828; with Apatinib + Pictilisib (first compound 0.8 µM), 0.76; with Apatinib + Pictilisib (first compound 2.53 µM), 0.714; with Apatinib + Pictilisib (first compound 8 µM) it was 0.72; with Metformin + Phenformin (first compound 10 µM), 0.48. The relative viability with Metformin + Phenformin (first compound 31.62 µM) was found to be 0.525; with Metformin + Phenformin (first compound 100 µM), 0.537; with Metformin + Phenformin (first compound 316.23 µM), 0.509; in the test with Metformin + Phenformin (first compound 1000 µM) it was 0.51; with Apatinib + Trametinib (first compound 0.08 µM), 0.667; in the test with Apatinib + Trametinib (first compound 0.253 µM), 0.705. Besides, the relative viability with Apatinib + Trametinib (first compound 0.8 µM) was 0.638; with Apatinib + Trametinib (first compound 2.53 µM), 0.608; with Apatinib + Trametinib (first compound 8 µM) it was 0.56; with Apatinib + Vorinostat (first compound 0.08 µM), 0.813; with Apatinib + Vorinostat (first compound 0.253 µM), 0.746; with Apatinib + Vorinostat (first compound 0.8 µM) it was 0.765. Moreover, the relative viability with Apatinib + Vorinostat (first compound 2.53 µM) worked out at 0.637; with Apatinib + Vorinostat (first compound 8 µM), 0.671.
